Tested on: Maize
Experiment: Preemergence phytotoxic action of the herbicide of formula I and of mixtures of herbicide and safener of formula II on maize
Assay type: in vivo
Settings: no safener, 22 days
Text: Preemergence Phytoxic Action of the Herbicide of Formula I and of the Mixtures of Herbicide and Safener of Formula II on Maize
Maize is sown in standard soil in plastic pots. Immediately after sowing, the pots are sprayed with an aqueous suspension of the test substances (500 l of water/ha) prepared from one of the above formulations 1 to 8. The concentration of herbicide of formula I is 4000, 3000 and 2000 g/ha. The safener No. 1.006 is applied in a ratio to the herbicide of 1:18, 1:24 and 1:30. The test plants are afterwards cultivated in a greenhouse under optimum conditions. The phytotoxic action of the herbicide on the maize (percentage phytotoxicity) is evaluated after a test duration of 22 days.

CCc1cccc(C)c1N(C(=O)CCl)[C@@H](C)COC [formula I, aRS,1′S(−)N-(1′-methyl-2′-methoxyethyl)-N-chloracetyl-2-ethyl-6-methylaniline]
% Phytotoxicity (herbicide of formula I 4000 g/ha, greenhouse): 65% | % Phytotoxicity (series b), herbicide of formula I 2000 g/ha (so in the source)): 55% | % Phytotoxicity (series c), herbicide of formula I 2000 g/ha): 25%

From patent US20030224937A1, “Selective herbicidal composition” (priority 1994, published 2003)
